Experimental data as given in patent publication US10107816B2, “G-protein coupled receptor-associated diagnostics and therapeutics for B-cell chronic lymphocytic leukemia” (THE REGENTS OF THE UNIVERSITY OF CALIFORNIA, priority 2013, dated 2018).
“Also recorded” adds a separate entry of the source. Where no end group is shown, it is not given here.

Key:
[1] = system: NK.tert bone marrow-derived stromal cells; test: Stromal cell proliferation ([3H] thymidine) with conditioned media from indolent CLL cultures; type: cell-based, human; settings: conditioned media from indolent CLL cells incubated 24 hr with IR284 (100 nM) or VIP
Experimental: Mononuclear cells derived from the blood of Indolent CLL patients were grown in tissue culture media (RPMI 1640+10% Heat-Inactivated Fetal Bovine Serum) and incubated for 24 hr in the absence of any drug (“untreated CLL”), in the presence of the phosphodiesterase 4/7 inhibitor IR284 (100 nM) or the VIPR agonist VIP […]. In the 24 hr incubation period products excreted from the cells in response to the treatments accumulate in the media, which is called “conditioned media” (CM). CM was harvested from the cell cultures by subjecting them to centrifugation at 233 rcf for 10 minutes at 4° C. to pellet cells and debris. The liquid portion was removed and used as CM. To assess the impact of CM from the indolent CLL cultures upon the proliferation of bone marrow-derived stromal cells (which make up the supportive microenvironment of CLL in vivo), CM was added to NK.tert bone marrow-derived stromal cells along with [3H] thymidine to assess DNA synthesis/cell proliferation

[2] = system: CLL cells; test: Assay of cellular apoptosis (annexin V/PI flow cytometry) in CLL cells; type: cell-based, human; settings: for apoptosis in combination with IR284: with PDE inhibitor IR284 (100 nM), compared to IR284 alone
Experimental: (§1) FIG. 7 illustrates apoptosis of CLL cells (data from Aggressive and Indolent CLL cells), left panel, and normal B-cells (n=3), right panel, in response to 1 μM VIP+100 nM IR284. Statistical significance, determined by Student's t-test, is shown (*=P<0.05) compared to cells treated only with 100 nM IR284.
(§2) Cycle thresholds (lower value denotes higher expression) normalized to 28S. Statistical significance was determined by Student's t-test and is depicted by (***) for P<0.001 compared to normal. […] Statistical significance was determined by paired t test with (*) P<0.05 compared to IR284 alone.
(§3) Flow cytometry was used to detect annexin V/fluorescein isothiocyanate (FITC) and propidium iodide (PI) staining to determine the apoptotic population of treated cells. CLL-cells or normal PBMC (1,000,000/ml) in […]+10% FBS were incubated for 48 hr in standard culture conditions with or without drugs and then assayed for annexinV/PI staining per manufacturer's protocol using a FACScan (Becton Dickinson Biosciences, San Jose, Calif.) flow cytometer.

[3] = system: CLL cells; test: cAMP accumulation assay (cAMP radioimmunoassay); type: cell-based, human; settings: aggressive CLL cells (n=8); 1 μM VIP + 100 nM IR284, relative to 100 nM IR284 alone; P<0.05
Experimental: The results are expressed relative to cAMP levels in cells treated only with 100 nM IR284, a PDE4/7 inhibitor. Statistical significance was determined by paired t test and is shown (*=P<0.05) compared to cells treated only with IR284.
as §2
One million CLL-cells or normal PBMC/ml in […] buffer+10% FBS were plated in a 12-well cell culture plate and incubated for 20 min at 37° C. in air plus 5% CO2 with a dual PDE4/7 inhibitor (IR284). VIP or ACTH were then added to the 12-well culture plate and incubated for 10 min at 37° C. in air plus 5% CO2. The cells were then centrifuged at 1200 rpm for 5 min at 4° C. The media was aspirated and 50 μl of 7.5% trichloroacetic acid (TCA) was added to each cell pellet to release cAMP from the cells. The TCA-suspended sample was diluted in 1 ml 10 mM sodium acetate and acetylated with 20 ul triethylamine and 10 ul acetic anhydride. The competitive binding assay consists of 50 μl of diluted, acetylated sample, 25 μl AMP antibody and 25 μl ^125I-labeled cAMP (Perkin Elmer). […]

[4] = system: normal B-cells; test: Assay of cellular apoptosis (annexin V/PI flow cytometry) in normal B-cells; type: cell-based, human; settings: normal B-cells (n=3)
Experimental: as §1, §3

[5] = system: CLL cells; test: Spontaneous apoptosis of CLL cells (Annexin V surface staining); type: cell-based, human
Description: FIG. 12 illustrates that the peptide hormone insulin-like peptide 3 (INSL3) protects CLL cells from spontaneous apoptosis.

[6] = biological target: T1, LGR8 (Homo sapiens, UniProt Q8WXD0); settings: recombinant LGR8 in 293T cells; cited from earlier work
T1 construct: expressed in transfected cells; host or cells: 293T cells

[7] = system: LGR8; settings: germ cells; via inhibitory G protein Gi; cited from earlier work
[8] = system: arrested oocytes in preovulatory follicles; settings: in vitro and in vivo; cited from earlier work
[9] = system: male germ cell; settings: in vivo; cited from earlier work
[10] = indolent CLL cells, with or without VIP or ACTH, with a phosphodiesterase inhibitor

T1 sequence (Q8WXD0 whole entry): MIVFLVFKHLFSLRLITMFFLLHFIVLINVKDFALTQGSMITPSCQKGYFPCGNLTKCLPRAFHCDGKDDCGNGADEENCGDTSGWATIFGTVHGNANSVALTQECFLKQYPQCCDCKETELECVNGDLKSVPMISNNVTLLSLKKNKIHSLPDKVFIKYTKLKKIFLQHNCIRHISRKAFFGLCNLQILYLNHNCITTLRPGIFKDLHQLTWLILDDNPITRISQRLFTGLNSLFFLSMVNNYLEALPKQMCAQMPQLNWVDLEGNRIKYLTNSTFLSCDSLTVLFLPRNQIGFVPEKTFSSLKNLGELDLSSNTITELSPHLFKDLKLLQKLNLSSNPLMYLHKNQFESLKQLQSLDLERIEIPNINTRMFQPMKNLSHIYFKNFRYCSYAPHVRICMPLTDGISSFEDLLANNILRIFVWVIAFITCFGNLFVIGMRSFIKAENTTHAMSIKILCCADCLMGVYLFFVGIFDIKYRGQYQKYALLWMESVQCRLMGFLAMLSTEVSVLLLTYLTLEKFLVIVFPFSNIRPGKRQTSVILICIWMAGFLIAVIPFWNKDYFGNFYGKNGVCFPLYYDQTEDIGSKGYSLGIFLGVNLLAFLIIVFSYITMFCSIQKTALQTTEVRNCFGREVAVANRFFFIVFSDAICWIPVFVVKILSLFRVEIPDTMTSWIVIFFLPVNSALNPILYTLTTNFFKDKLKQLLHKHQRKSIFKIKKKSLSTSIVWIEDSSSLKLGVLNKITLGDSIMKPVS

Row | Molecule | proliferation of stromal cells (DNA synthesis) [1] | apoptosis ([2]; aggressive CLL cells, 48 hr) | apoptosis in combination with IR284 ([2]; aggressive CLL cells) | apoptosis [2, 10] | also measured
1 | COc1ccc(C2=NN(C3CCN(C(=O)N4CCOCC4)CC3)C(=O)C3CC=CCC23)cc1Cl (stereo not shown) [IR284, (4-(3-chloro-4-methoxyphenyl)-2-(1-morpholine-4-carbonyl)piperadin-4-yl)-4a, 5,8,8a-tetrahydrophthalazin-1(2H)-one] | suppressed proliferation | – | – | – | –
2 | ACTH: a melanocortin 2 receptor [MC2R] agonist, purchased from GenWay (SYSMEHFRWGKPVGKKRRPVKVYPNGAEDESAEAFPLEF; Corticotropin; UniProt P01189 138-176, looked up) | – | promote apoptosis | increase apoptosis | not indolent CLL | –
3 | VIP: vasoactive intestinal peptide receptor agonist, purchased from Tocris Bioscience (HSDAVFTDNYTRLRKQMAVKKYLNSILN; ends and bridges not checked; UniProt P01282 125-152, looked up) | suppressed proliferation | increases apoptosis; also recorded: promote apoptosis | significantly enhanced; also recorded: increase apoptosis | not indolent CLL | cAMP accumulation [3]: significantly enhanced; apoptosis ([2]; CLL cells, P<0.05, n=3): induced apoptosis; apoptosis [4]: does not promote apoptosis
4 | INSL3: peptide hormone insulin-like peptide 3, LGR8 agonist (peptide, UniProt P51460 21-55; P51460 106-131, looked up) Insulin-like 3 B chain: LGPAPTPEMREKLCGHHFVRALVRVCGGPRWSTEA Insulin-like 3 A chain: AAATNPARYCCLSGCTQQDLLTLCPY | – | – | – | – | protection from apoptosis [5]: protects CLL cells from programmed cell death; adenylyl cyclase activation / intracellular cAMP [6]: increases accumulation of intracellular cAMP; cAMP production [7]: decreases in cAMP production; meiotic progression of arrested oocytes [8]: initiates meiotic progression; male germ cell apoptosis [9]: suppresses male germ cell apoptosis
